Tested on: enzyme associated with Bacillus stearothermophilus spores
Experiment: Rapid enzyme fluorescence readout of indicators after hydrogen peroxide plasma sterilization
Assay type: biochemical
Conditions: for FLUORESCENCE - PERCENT POSITIVE 1 HR / FLUORESCENCE - PERCENT POSITIVE 2 HR / FLUORESCENCE - PERCENT POSITIVE 3 HR / FLUORESCENCE - PERCENT POSITIVE 4 HR / FLUORESCENCE - PERCENT POSITIVE 5 HR: 1–22 min diffusion
In short: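 Indicators with a TYVEK closure held spores coated with various chemicals and were exposed to hydrogen peroxide plasma at 45–55 °C: 6–7 mg/ml chamber peroxide, diffusing 1–22 min at 6–10 Torr. Enzyme fluorescence was read hourly for 5 h at 60 °C. Growth was scored visually as a purple-to-yellow change after 168 h.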

## Decaglyceryl Decaoleate
1–3 hours after exposure
  accuracy of sterilization indicators compared to indicators made with untreated spores: improved
2–3 hours after exposure
  accuracy of sterilization indicators compared to indicators made with untreated spores: improved
2–3 hours after exposure, concentrations of 5–100 mg/ml
  accuracy of sterilization indicators compared to indicators made with untreated spores: improved
Example 6, 10 mg/ml coating
  FLUORESCENCE - PERCENT POSITIVE 1 HR: 83.7%
  FLUORESCENCE - PERCENT POSITIVE 2 HR: 100%
  FLUORESCENCE - PERCENT POSITIVE 3 HR: 100%
  FLUORESCENCE - PERCENT POSITIVE 4 HR: 100%
  FLUORESCENCE - PERCENT POSITIVE 5 HR: 100%
Example 7, 10 mg/ml coating
  FLUORESCENCE - PERCENT POSITIVE 1 HR: 83.7%
  FLUORESCENCE - PERCENT POSITIVE 2 HR: 100%
  FLUORESCENCE - PERCENT POSITIVE 3 HR: 100%
  FLUORESCENCE - PERCENT POSITIVE 4 HR: 100%
  FLUORESCENCE - PERCENT POSITIVE 5 HR: 100%
Example 9, 5 mg/ml coating
  FLUORESCENCE - PERCENT POSITIVE 1 HR: 65.7%
  FLUORESCENCE - PERCENT POSITIVE 2 HR: 100%
  FLUORESCENCE - PERCENT POSITIVE 3 HR: 100%
  FLUORESCENCE - PERCENT POSITIVE 4 HR: 100%
  FLUORESCENCE - PERCENT POSITIVE 5 HR: 100%
Example 9, 7.5 mg/ml coating
  FLUORESCENCE - PERCENT POSITIVE 1 HR: 83.5%
  FLUORESCENCE - PERCENT POSITIVE 2 HR: 100%
  FLUORESCENCE - PERCENT POSITIVE 3 HR: 100%
  FLUORESCENCE - PERCENT POSITIVE 4 HR: 100%
  FLUORESCENCE - PERCENT POSITIVE 5 HR: 100%
Example 9, 10 mg/ml coating
  FLUORESCENCE - PERCENT POSITIVE 1 HR: 83.7%
  FLUORESCENCE - PERCENT POSITIVE 2 HR: 100%
  FLUORESCENCE - PERCENT POSITIVE 3 HR: 100%
  FLUORESCENCE - PERCENT POSITIVE 4 HR: 100%
  FLUORESCENCE - PERCENT POSITIVE 5 HR: 100%
Example 9, 50 mg/ml coating
  FLUORESCENCE - PERCENT POSITIVE 1 HR: 85.0%
  FLUORESCENCE - PERCENT POSITIVE 2 HR: 90.2%
  FLUORESCENCE - PERCENT POSITIVE 3 HR: 100%
  FLUORESCENCE - PERCENT POSITIVE 4 HR: 100%
  FLUORESCENCE - PERCENT POSITIVE 5 HR: 100%
Example 9, 100 mg/ml coating
  FLUORESCENCE - PERCENT POSITIVE 1 HR: 73.3%
  FLUORESCENCE - PERCENT POSITIVE 2 HR: 86.7%
  FLUORESCENCE - PERCENT POSITIVE 3 HR: 100%
  FLUORESCENCE - PERCENT POSITIVE 4 HR: 100%
  FLUORESCENCE - PERCENT POSITIVE 5 HR: 100%

## Decaglyceryl Monostearate
Example 7, 50 mg/ml coating
  FLUORESCENCE - PERCENT POSITIVE 1 HR: 64.4%
  FLUORESCENCE - PERCENT POSITIVE 2 HR: 83.0%
  FLUORESCENCE - PERCENT POSITIVE 3 HR: 89.8%
  FLUORESCENCE - PERCENT POSITIVE 4 HR: 91.3%
  FLUORESCENCE - PERCENT POSITIVE 5 HR: 91.3%

— patent publication US7045343B2, “Sterilization indicator test packs” (3M Innovative Properties Company, priority 1998, dated 2006)
